Test results from patent US12215126B2, “Cationic steroidal antimicrobial compounds with endogenous groups” (Brigham Young University, priority 2020, dated 2025).
In brackets after ≈: the same amount, converted by molar mass. Like-named read-outs stand apart in the source and are kept apart here.

What was measured:
Assay in all cases: Antimicrobial activity, minimum inhibitory concentration (MIC)
Format in all cases: cell-based
[1] = system: methicillin resistant Staphylococcus aureus (MRSA) BAA-41
Procedure: (§1) The antimicrobial activity of CSA-148 was determined in comparison to CSA-44, a CSA compound known to have very high antimicrobial activity compared to other CSAs. The microbes used in the comparative test was were Candida albicans 90028, methicillin resistant Staphylococcus aureus (MRSA) BAA-41, and Pseudomonas aeruginosa (PA01 47085).

[2] = system: Pseudomonas aeruginosa (PA01 47085)
Procedure: as §1

Candida albicans 90028 = system: Candida albicans 90028
Procedure: as §1
The measured MICs for C. albicans 90028 were based on 100% inhibition of growth (i.e. no cloudiness). Judging by 50% inhibition, which is more difficult but is typical for fungal MICs, the MIC for CSA-44 relative to C. albicans can be extrapolated to 4 μg/ml, and the MIC for CSA-148 relative to C. albicans can be extrapolated to 2 μg/ml.

MIC [1] [µg/mL] | MIC [2] [µg/mL] | MIC (Candida albicans 90028; C. albicans 90028, based on 100% inhibition of growth (no cloudiness)) [µg/mL] | MIC (Candida albicans 90028; C. albicans, judging by 50% inhibition, extrapolated) [µg/mL] | SMILES | MIC ([1]; Staphylococcus aureus, read-out: MIC) [µg/mL] | MIC ([2]; Pseudomonas aeruginosa, read-out: MIC) [µg/mL] | MIC (Candida albicans 90028; Candida albicans, 90028, C. albicans 90028, based on 100% inhibition of growth (no cloudiness), read-out: MIC) [µg/mL] | MIC (Candida albicans 90028; Candida albicans, 90028, C. albicans, judging by 50% inhibition, extrapolated, read-out: MIC) [µg/mL]
2 (≈ 2.72 µM) | 2 (≈ 2.72 µM) | 8 (≈ 10.9 µM) | 4 (≈ 5.45 µM) | CCCCCCCCOC(=O)CC[C@@H](C)[C@H]1CC[C@H]2[C@@H]3[C@H](OC(=O)CCN)C[C@@H]4C[C@H](OC(=O)CCN)CC[C@]4(C)[C@H]3C[C@H](OC(=O)CCN)[C@]12C [CSA-44] | – | – | – | –
– | – | – | – | CC(C)=CCC/C(C)=C/COC(=O)CC[C@@H](C)[C@H]1CC[C@H]2[C@@H]3[C@H](OC(=O)CCN)C[C@@H]4C[C@H](OC(=O)CCN)CC[C@]4(C)[C@H]3C[C@H](OC(=O)CCN)[C@]12C [CSA-148] | 2 (≈ 2.64 µM) | 2 (≈ 2.64 µM) | 4 (≈ 5.28 µM) | 2 (≈ 2.64 µM)
